# Assay results from article PMC5860131, “Identification of natural products as novel ligands for the human 5-HT2C receptor” (Biophysics Reports, 2018).
# Tests used:
# 5-HT2B receptor = molecular target: T1, 5-HT2B receptor (Homo sapiens, UniProt P41595); assay: Ca2+ mobilization assay (Fluo-4, FLIPR), HEK 293T cells stably transfected with 5-HT2B; type: cell-based
# T1 construct: expressed in transfected cells; host or cells: HEK 293T, stably transfected
# From the text: The 5-HT2C receptor mainly couples to Gαq proteins. The activated 5-HT2C receptor transmits the signals from the extracellular to the intercellular side using DAG/IP3 (diacyl glycerol/inositol 1,4,5-trisphosphate) as its second massagers (Hannon and Hoyer [2008]). IP3 stimulates the endoplasmic reticulum to release calcium ions into the cytoplasm, which causes the increase of calcium concentration in cytosol. Therefore, calcium mobilization assay is commonly applied to understand how unknown small molecule ligands of 5-HT2C receptor modulate cellular signal transductions. In this case, Fluo-4 Direct dye was used as a fluorescence indicator to detect calcium flux in G protein-coupled receptor expressed cells. The fold of maximum response over average of basal reading is plotted against compound concentration to determine the potency of the compounds (Fig. 3). […]. […] After the dye loaded, cells were placed in a FLIPR^TETRA fluorescence imaging plate reader (Molecular Devices); drug dilutions, prepared at 3× final concentration in FLIPR buffer and aliquotted into 384-well plates, were also added to the FLIPR^TETRA. The fluidics module and plate reader of the FLIPR^TETRA were programmed to read baseline fluorescence for 10 s (1 read/s), then to add 10 μl of drug/well and to read for 6 min (1 read/s). […]
# [1] = molecular target: T2, 5-HT2C receptor A222^5.46V (Homo sapiens, UniProt P28335, A222V/DEL255-298/G251D/H250E/H252N/INS299[…]/L248D/M247A/M300L/T253W); assay: CPM thermal stability assay, 5-HT2C mutant A222V; type: binding
# T2 construct: the N- and C-terminals were truncated by 39 and 65 residues, respectively; PreScission protease site + 10× His (C); made in house
# T2 sequence (P28335 with tags, fused parts or gaps with the stated changes): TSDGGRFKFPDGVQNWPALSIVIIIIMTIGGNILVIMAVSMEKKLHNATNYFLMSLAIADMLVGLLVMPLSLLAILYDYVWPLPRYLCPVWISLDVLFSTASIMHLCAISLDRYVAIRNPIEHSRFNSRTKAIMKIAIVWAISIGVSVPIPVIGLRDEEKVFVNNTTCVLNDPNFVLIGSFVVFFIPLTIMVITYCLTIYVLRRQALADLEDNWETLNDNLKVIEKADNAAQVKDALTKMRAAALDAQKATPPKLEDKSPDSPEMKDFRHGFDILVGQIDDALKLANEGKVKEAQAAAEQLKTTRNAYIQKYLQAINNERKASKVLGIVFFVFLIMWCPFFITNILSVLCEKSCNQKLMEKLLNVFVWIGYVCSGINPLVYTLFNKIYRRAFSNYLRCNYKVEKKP
# From the text: Based on the binding poses predicted by molecular docking, single-point mutations were designed to test their impact on ligand binding. Mutations of several residues include the highly conserved Asp134^3.32, which is known to cause 5-HT1B or 5-HT2B receptors to abolish the monoamine ligand binding as reported in the literature (Wang et al. [2013]). In this study, residues forming hydrophobic interactions with the substitution groups on the aporphine scaffold of (–)-crebanine (1) were selected for mutation as well and they are Thr139^3.37, Gly218^5.42, Ala222^5.46, and Leu209^ECL2. Effects of those mutations were tested with the CPM assay and the affinity MS assay (Table 2). In the affinity MS experiment, relative ligand-binding capacity (represented by binding %) to different mutants and the wild-type receptor was compared. […]
# Purified 5-HT2C receptor protein was thoroughly mixed with CPM fluorescent dyes. […] Fluorescence signals, wavelength 387 nm (excitation) and 463 nm (emission), were monitored (Alexandrov et al. [2008]). […] The thermal denaturation of the samples was evaluated using the scatter plot curve, where the horizontal coordinates represented temperature and the vertical coordinates indicated normalized fluorescence intensity recorded for a particular temperature. […]
# [2] = system: cortical pyramidal neurons; assay: Whole-cell patch clamp recording of spontaneous synaptic current (SPSC) in brain slices; type: cell-based; conditions: 30 μmol/L compound incubation, 10 μmol/L 5-HT; mouse brain slices
# Protocol: 5-HT receptors play important roles in central and peripheral nervous systems. Malfunctions of these receptors have been linked to many neural disorders such as depression and psychosis. The effect of (–)-crebanine on changes in 5-HT induced synaptic transmission was evaluated by electrophysiological recording of mouse brain slices (Jang et al. [2012]). The spontaneous synaptic current (SPSC) of cortical pyramidal neurons was recorded in whole cell mode.
# Cortical slices from ICR mouse of both genders (15–21 days) were prepared for electrophysiological recording. In brief, the animals were decapitated and brains were placed in cold sucrose artificial cerebrospinal fluid (sucrose-ASCF, in mmol/L: sucrose 213, KCl 2.5, NaH2PO4 1.25, NaHCO3 26, D-glucose 10, MgSO4 2, CaCl2 2, pH 7.4, 0–4 °C, saturated with 95% O2 and 5% CO2). The brains were cut into 280 or 300 μm slices with a vibratome (Leica VT1200S, Germany); slices were then incubated with ACSF (in mmol/L: NaCl 126, KCl 2.5, NaH2PO4 1.25, NaHCO3 26, D-glucose 25, MgSO4 2, CaCl2 2, pH 7.4, saturated with 95% O2 and 5% CO2) at room temperature for 1 h.
# A whole-cell patch clamp technique was used. […] Activity of cortical pyramidal neurons was recorded using an amplifier (HEKA EPC 10 USB, Germany) in the voltage clamp mode. […]
# T1 sequence (P41595 whole entry): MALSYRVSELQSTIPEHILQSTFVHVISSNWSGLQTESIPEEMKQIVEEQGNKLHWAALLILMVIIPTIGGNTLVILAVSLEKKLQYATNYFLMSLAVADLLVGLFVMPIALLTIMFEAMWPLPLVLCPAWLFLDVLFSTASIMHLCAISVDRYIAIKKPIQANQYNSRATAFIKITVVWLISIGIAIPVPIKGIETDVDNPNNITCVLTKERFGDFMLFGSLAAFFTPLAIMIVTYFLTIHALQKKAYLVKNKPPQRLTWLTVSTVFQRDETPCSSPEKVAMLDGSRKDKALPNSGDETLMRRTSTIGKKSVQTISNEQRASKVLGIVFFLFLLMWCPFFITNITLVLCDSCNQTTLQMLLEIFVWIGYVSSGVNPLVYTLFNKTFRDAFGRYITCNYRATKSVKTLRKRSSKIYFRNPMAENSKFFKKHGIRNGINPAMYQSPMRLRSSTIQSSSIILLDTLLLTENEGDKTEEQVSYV
structure (smiles),measurement,setting,value
"COc1ccc2c(c1OC)C[C@@H]1c3c(cc4c(c3-2)OCO4)CCN1C [Compound 1, (–)-crebanine]",IC50,5-HT2B receptor,1690 nM
same,(–)-Crebanine/CPM (Tm),"[1]; mutant A222^5.46V, n = 2",59.55 °C
same,Tm value decrease versus wild-type,[1]; mutation Ala222^5.46Val,0.38 °C
same,effect on 5-HT induced SPSC,[2],significantly attenuated
